Experimental data from EPA's ToxValDB 9.5 (doi:10.2903/j.efsa.2011.2096).
≈ marks a conversion by molar mass, not a printed value.

Assays:
Anas platyrhynchos = details: oral, mortality
Apis mellifera = details: acute; duration: 48 hours; oral; unspecified; mortality
Canidae = details: chronic; duration: 1 years; oral; Dog Other; body weight
Colinus virginianus = details: mortality
Daphnia magna = details: chronic/long-term; duration: 21 days; reproduction
Lepomis macrochirus = details: acute; duration: 96 hours; mortality
Oryctolagus sp. = details: developmental; development
Pimephales promelas = details: chronic/long-term; duration: 21 days
Plant = details: chronic/long-term; seedling emergence
Aphidius rhopalosiphi = experiment: LR50; higher = less toxic; details: not reported; mortality
Typhlodromus pyri = experiment: LR50; higher = less toxic; details: not reported; mortality

`O=c1c2cc(F)ccc2nc(-n2cncn2)n1-c1ccc(Cl)cc1Cl` [Fluquinconazole] showed an LD50 (Anas platyrhynchos; acute, unspecified) of over 2000 mg/kg-day, an LC50 (Anas platyrhynchos; short-term, feed) of over 210 mg/kg-day and an LD50 (Apis mellifera) of over 100 µg/piece. The NOAEL (Canidae) was 0.2 mg/kg-day, the LC50 (Colinus virginianus; acute, oral, diet) was 704 mg/kg-day and the LD50 (Colinus virginianus; acute, oral) was over 2000 mg/kg-day. It also gave an NOEC (Colinus virginianus; reproduction developmental) of 1.9 mg/kg-day, an NOEC (Daphnia magna) of 0.648 mg/L and an LC50 (Lepomis macrochirus) of 1.34 µg/mL (≈ 3.56 µM). It also gave an NOAEL (Oryctolagus sp.) of 2 mg/kg-day, an NOEC (Pimephales promelas) of 0.154 mg/L and an NOEC (Plant) of over 1000 g/ha. For the same compound, the LD50 (Rattus norvegicus; acute, oral, mortality) was 112 mg/kg-day, the NOAEL (Rattus norvegicus; chronic, mortality) was 0.9 mg/kg-day and the NOAEL (Rattus norvegicus; developmental, development) was 2 mg/kg-day. The LC50 (Tagia sp.; acute, duration: 14 days, mortality) was over 1000 mg/kg, the NOEC (Tagia sp.; chronic/long-term, duration: 56 days) was 0.5 mg/kg and the LR50 (Aphidius rhopalosiphi) was under 149 g/ha. For the same compound, the LR50 (Typhlodromus pyri) was under 149 g/ha.
